Assay results taken from US20210171948A1, “COMPOSITIONS AND METHODS FOR TARGETING GLYPICAN-2 IN THE TREATMENT OF CANCER” (Shepherd Therapeutics, Inc., priority 2019, published 2021).
Strand notation (5' to 3'): a small letter for the sugar, then the base; units joined by * are phosphorothioate-linked, units joined directly phosphodiester-linked; [ ] holds rarer units or linkages, { } end groups; capitals alone tell only the bases. d = 2'-deoxy (DNA); r = 2'-OH (RNA)

Key:
[1] = system: KELLY cells; test: Cyclophosphamide IC50 in siRNA-transfected cells, Cell Titer Glo 2.0 viability (Example 7); type: cell-based
Description: (§1) GPC2 mRNA expression was reduced with the indicated siRNAs and changes in cell viability were assessed in multiple neuroblastoma cell lines. Cells were transfected with either a control siRNA or with GPC2 siRNA sequences 3, 5 or 7 from Table 7 using the RNAiMAX Lipofectamine kit (Invitrogen, Carlsbad, Calif.) as previously described in 96 wells for viability assays. Cyclophosphamide was added at increasing concentrations (0-20 uM) to transfected cells at 24 hr post transfection. Following a 72 hour incubation period, viability measurements were made using Cell Titer Glo 2.0.

[2] = system: SKNAS cells; test: as above; type: cell-based
Description: as §1

[3] = system: CHLA-136 cells; test: as above; type: cell-based
Description: as §1

[4] = system: CHLA-172 cells; test: as above; type: cell-based
Description: as §1

[5] = system: SNU16 cells; test: Cell viability after siRNA transfection, Cell Titer Glo 2.0 (Example 3); type: cell-based
Description: (§2) GPC2 mRNA knockdown and changes in cell viability were assessed in multiple cancer cell lines. Cells were transfected with either a scrambled control siRNA or with GPC2 siRNA sequence 3 or sequence 5 from Table 7 using the RNAiMAX Lipofectamine kit (Invitrogen, Carlsbad, Calif.) as previously described in Example 2, either in 96 well format (for viability assays) or 6 well format (for knockdown assessment). Following a 96 hour incubation period, cells were washed and the viability measurement was assessed using Cell Titer Glo 2.0. Total RNA was isolated from the 6 well plate samples to determine knockdown efficiency.

[6] = system: SKNAS cells; test: as above; type: cell-based
Description: as §2

[7] = system: CHP212 cells; test: as above; type: cell-based
Description: as §2

[8] = system: TC32 cells; test: as above; type: cell-based
Description: as §2

[9] = system: TOV112D cells; test: as above; type: cell-based
Description: as §2

[10] = system: TC71 cells; test: as above; type: cell-based
Description: as §2

[11] = system: GPC2 mRNA; test: GPC2 mRNA knockdown by qPCR in TC-32 Ewing's sarcoma cells transfected with siRNA (Example 2); type: cell-based, human; conditions: TC-32 cells; 72 hours post transfection
Description: siRNAs 1-5 from Table 7 were diluted to 40 nM in OptiMEM media and mixed in a 1:3 ratio (weight by volume) with RNAiMAX. This was incubated for 15 minutes at room temperature and dispensed onto cells plated in a 6 well tissue culture plate. Total RNA samples were collected at either 72 hours post transfection to compare knockdown efficiency (FIG. 2A), or at 24, 48, 72 or 96 hours post transfection to determine the extent of GPC2 mRNA knockdown over time (FIG. 2B). Expression levels of mRNA of GPC2 were measured in these samples using primers specific for GPC2 obtained commercially from Thermofisher (Carlsbad, Calif.) and standard qPCR technique.

[12] = system: GPC2 mRNA; test: GPC2 mRNA knockdown in cell lines of the cisplatin experiment (Example 5); type: cell-based, human
Description: GPC2 mRNA was reduced using the indicated siRNAs and changes in cell viability were assessed in multiple cancer cell lines, in combination with Cisplatin treatment. Cells were transfected with either a scrambled control siRNA or with GPC2 siRNA sequences 3 or 5 from Table 7 using the RNAiMAX Lipofectamine kit (Invitrogen, Carlsbad, Calif.), as previously described, in either in 96 well (for viability assays) or 6 well format (for total RNA). Cisplatin was added at increasing concentrations (0 to 30 uM) to transfected cells at 24 hours post transfection. Following a 72 hour incubation period, cell viability was measured using Cell Titer Glo 2.0. Total RNA samples were also isolated to measure knockdown efficiency.

[13] = system: spheroids from CHP212, SKNAS, SK-N-BE2 and CHLA90 neuroblastoma cells; test: Viability of established spheroid cultures after siRNA transfection (Example 11); type: cell-based; conditions: 96 hour following transfection; where GPC2 knockdown was observed (FIG. 7B)
Description: The effect of siRNA mediated GPC2 mRNA knockdown was also assessed on established spheroid cultures. Spheroids were established by seeding cells in low attachment plates and culturing for 96 hours. Spheroids were transfected with either a scrambled control siRNA or with GPC2 siRNA of sequence 5 or 7 from Table 7, using the RNAiMAX Lipofectamine kit (Invitrogen, Carlsbad, Calif.) as previously described. At the 96 hour time point following transfection, the degree of GPC2 mRNA knockdown (FIG. 7A) as well as spheroid viability (FIG. 7B) was measured.

[14] = system: KELLY cells; test: Topotecan IC50 in siRNA-transfected cells, Cell Titer Glo 2.0 viability (Example 10); type: cell-based
Description: (§3) GPC2 mRNA expression was reduced and changes in cell viability were assessed in multiple neuroblastoma cell lines. Cells were transfected with either a control siRNA or with GPC2 siRNA sequences 5 or 7 from Table 7 using the RNAiMAX Lipofectamine kit (Invitrogen, Carlsbad, Calif.) as previously described in 96 wells for viability assays. Topotecan was added at increasing concentrations (0-5 uM) to transfected cells at 24 hours post transfection. Following a 72 hour incubation period, viability measurements were made using Cell Titer Glo 2.0.

[15] = system: SKNAS cells; test: as above; type: cell-based
Description: as §3

[16] = system: SH-SY5Y cells; test: as above; type: cell-based
Description: as §3

[17] = system: CHLA-90 cells; test: as above; type: cell-based
Description: as §3

[18] = system: SK-N-BE2 cells; test: as above; type: cell-based
Description: as §3

[19] = system: CHP212 cells; test: as above; type: cell-based
Description: as §3

Substance: GPC2 siRNA 3: siRNA duplex: sense CCUGCUUGGACCUCGAUAA[dT][dT] (SEQ ID NO: 207), anti-sense UUAUCGAGGUCCAAGCAGG[dT][dT] (SEQ ID NO: 208) (sense CCUGCUUGGACCUCGAUAANN; antisense UUAUCGAGGUCCAAGCAGGNN; 3' dTdT overhangs, chemistry not fully specified; listed as Homo sapiens)
- Data Summary: effect of knockdown on sensitivity to cyclophosphamide ([1]; KELLY): increases sensitivity to
- IC50 ([1]; KELLY cells transfected with the labelled siRNA, cyclophosphamide added 24 hr post transfection, 72 hour incubation): 8000 nM
- Data Summary: effect of knockdown on sensitivity to cyclophosphamide ([2]; SKNAS): increases sensitivity to
- IC50 ([2]; SKNAS cells transfected with the labelled siRNA, cyclophosphamide added 24 hr post transfection, 72 hour incubation): 1370 nM
- Data Summary: effect of knockdown on sensitivity to cyclophosphamide ([3]; CHLA-136): not increase sensitivity
- IC50 ([3]; CHLA-136 cells transfected with the labelled siRNA, cyclophosphamide added 24 hr post transfection, 72 hour incubation): 11000 nM
- Data Summary: effect of knockdown on sensitivity to cyclophosphamide ([4]; CHLA-172): increases sensitivity to
- IC50 ([4]; CHLA-172 cells transfected with the labelled siRNA, cyclophosphamide added 24 hr post transfection, 72 hour incubation): 10000 nM
- % Viability [5]: 92.74%
- % Viability [6]: 84.58%
- % Viability [7]: 70.18%
- % Viability [8]: 78.24%
- % Viability [9]: 152.77%
- % Viability [10]: 102.39%
- Degree of GPC2 knockdown among siRNA sequences 1-5 [11]: greatest degree of GPC2 knockdown
- % GPC2 knockdown ([12]; CHLA-90 (Neuroblastoma)): 50%
- % GPC2 knockdown ([12]; CHLA-136 (Neuroblastoma)): 25%
- % GPC2 knockdown ([12]; CHLA-172 (Neuroblastoma)): 5%
- % GPC2 knockdown ([12]; CHP212 (Neuroblastoma)): 60%
- % GPC2 knockdown ([12]; COV362 (Ovarian cancer)): 85%
- % GPC2 knockdown ([12]; GIST-T1 (Gastrointestinal Stromal)): 55%
- % GPC2 knockdown ([12]; KELLY (Neuroblastoma)): 65%
- % GPC2 knockdown ([12]; RH30 (Rhabdomyosarcoma)): 80%
- % GPC2 knockdown ([12]; RH41 (Rhabdomyosarcoma)): 55%
- % GPC2 knockdown ([12]; SH-SY5Y (Neuroblastoma)): 55%
- % GPC2 knockdown ([12]; SK-N-BE2 (Neuroblastoma)): 55%
- % GPC2 knockdown ([12]; SKNAS (Neuroblastoma)): 40%
- % GPC2 knockdown ([12]; SNU16 (Gastric carcinoma)): 50%
- % GPC2 knockdown ([12]; TC32 (Ewing's sarcoma)): 70%
- % GPC2 knockdown ([12]; TC71 (Ewing's sarcoma)): 55%
- % GPC2 knockdown ([12]; TOV112D (Ovarian cancer)): 90%

Substance: GPC2 siRNA 7: siRNA duplex: sense CUCCUUUCUGGUUCACACA[dT][dT] (SEQ ID NO: 215), anti-sense UGUGUGAACCAGAAAGGAG[dT][dT] (SEQ ID NO: 216) (sense rCrUrCrCrUrUrUrCrUrGrGrUrUrCrArCrArCrAdTdT; antisense rUrGrUrGrUrGrArArCrCrArGrArArArGrGrArGdTdT; listed as Homo sapiens)
- Viability of established spheroids [13]: a decrease in spheroid viability was also seen
- Data Summary: effect of knockdown on sensitivity to topotecan ([14]; KELLY): not increase sensitivity to topotecan
- IC50 ([14]; KELLY cells transfected with the labelled siRNA, topotecan added 24 hours post transfection, 72 hour incubation): 20 nM
- Data Summary: effect of knockdown on sensitivity to topotecan ([15]; SKNAS): increases sensitivity to topotecan
- IC50 ([15]; SKNAS cells transfected with the labelled siRNA, topotecan added 24 hours post transfection, 72 hour incubation): 20 nM
- Data Summary: effect of knockdown on sensitivity to topotecan ([16]; SH-SY5Y): not increase sensitivity to topotecan
- IC50 ([16]; SH-SY5Y cells transfected with the labelled siRNA, topotecan added 24 hours post transfection, 72 hour incubation): 40 nM
- Data Summary: effect of knockdown on sensitivity to topotecan ([17]; CHLA-90): not increase sensitivity to topotecan
- IC50 ([17]; CHLA-90 cells transfected with the labelled siRNA, topotecan added 24 hours post transfection, 72 hour incubation): 140 nM
- Data Summary: effect of knockdown on sensitivity to topotecan ([18]; SK-N-BE2): not increase sensitivity to topotecan
- IC50 ([18]; SK-N-BE2 cells transfected with the labelled siRNA, topotecan added 24 hours post transfection, 72 hour incubation): 10 nM
- Data Summary: effect of knockdown on sensitivity to topotecan ([19]; CHP212): not increase sensitivity to topotecan
- IC50 ([19]; CHP212 cells transfected with the labelled siRNA, topotecan added 24 hours post transfection, 72 hour incubation): 10 nM
